Measured values from patent publication US20030092739A1, “Heterocyclic compounds” (priority 2001, published 2003).
Read-outs that look alike come from different tables or passages of the source.

Tested on: aphids
Test: Biological Test On Aphid (spray on cabbage leaf in Petri dish)
Assay type: in vivo
Conditions: for Number of dead aphids 1st: 1st replicate; for Number of dead aphids 1st / Number of dead aphids 2nd / Number of dead aphids 3rd / Number of dead aphids 4th: 20 aphids on cabbage leaf, 9.6% w/w pesticide reagent diluted 1000 times with water, sprayed, examined 24 hours later; for Number of dead aphids 2nd: 2nd replicate; for Number of dead aphids 3rd: 3rd replicate; for Number of dead aphids 4th: 4th replicate; for Number of dead aphids Average: average of four replicates; for pest or weed control at 96 µg/mL: read-out: Kill ratio
Experimental: The compound obtained from Example 1 was mixed with a solvent to form a 9.6% w/w pesticide reagent. An 8 cm×8 cm piece of clean cabbage leaf was placed on a lump of wet cotton in a Petri dish, and then 20 aphids were put on the cabbage leaf in the Petri dish. The thus formed pesticide reagent was diluted 1000 times with water to form a dilution that was then sprayed onto the cabbage leaf in the Petri dish with a predetermined amount. The number of dead aphids was examined 24 hours later, and the kill ratio was calculated. The test was carried out through four replicates.
Example 9 was repeated, except that the compound employed in Example 9 was replaced by the compound obtained from a respective one of the Examples 2 to 8.
Example 9 was repeated, except that the compound employed in Example 9 was replaced by imidachloprid, a heterocyclic compound of the formula disclosed in U.S. Pat. No. 4,742,060 that can be useful as pesticides.

[1] = 20 aphids, 9.6% w/w reagent diluted 1000 times, 24 hours
[2] = calculated from number of dead aphids, 20 aphids, 9.6% w/w reagent diluted 1000 times, 24 hours, four replicates

O=[N+]([O-])/N=C1\NCCN1Cc1ccc(Cl)nc1 [Comparative Example 1, imidachloprid, reference compound]
Number of dead aphids 1st: 17
Number of dead aphids 2nd: 17
Number of dead aphids 3rd: 18
Number of dead aphids 4th: 17
Number of dead aphids Average [1]: 17.25
Kill ratio [2]: 85.90

CNC(=O)Nc1nc2ccccc2n1Cc1csc(Cl)n1 [Example 16, 1-[1-(2-chloro-thiazol-4-ylmethyl)-1H-benzoimidazol-2-yl]-3-methyl-urea]
Number of dead aphids 1st: 19
Number of dead aphids 2nd: 16
Number of dead aphids 3rd: 16
Number of dead aphids 4th: 16
Number of dead aphids Average [1]: 16.75
pest or weed control at 96 µg/mL [2]: 83.3%

CSc1c(C)cc(OCc2ccc(Cl)nc2)cc1C [Example 12, 2-chloro-5-(3,5-dimethyl-4-methylsulfanyl-phenoxymethyl)-pyridine]
Number of dead aphids 1st: 20
Number of dead aphids 2nd: 19
Number of dead aphids 3rd: 19
Number of dead aphids 4th: 19
Number of dead aphids Average [1]: 19.25
pest or weed control at 96 µg/mL [2]: 96.2%

CNC(=O)Nc1nc2ccccc2n1Cc1ccc(Cl)nc1 [Example 15, 1-[1-(6-chloro-pyridin-3-ylmethyl)-1H-benzoimidazol-2-yl]-3-mehtyl-urea]
Number of dead aphids 1st: 17
Number of dead aphids 2nd: 17
Number of dead aphids 3rd: 16
Number of dead aphids 4th: 16
pest or weed control at 96 µg/mL (24 h): 82%
Number of dead aphids Average [1]: 16.5

CC1(C)Cc2cccc(OCc3ccc(Cl)nc3)c2O1 [Example 14, 2-chloro-5-(2,2-dimethyl-2,3-dihydro-benzofuran-7-yloxymethyl)-pyridine]
Number of dead aphids 1st: 17
Number of dead aphids 2nd: 16
Number of dead aphids 3rd: 18
Number of dead aphids 4th: 16
Number of dead aphids Average [1]: 16.75
pest or weed control at 96 µg/mL [2]: 83.3%

CS/C(C)=N/OCc1ccc(Cl)nc1 [Example 10, N-(6-chloro-pyridin-3-ylmethoxy)-thioacetimidic Acid Methyl Ester]
Number of dead aphids 1st: 18
Number of dead aphids 2nd: 17
Number of dead aphids 3rd: 18
Number of dead aphids 4th: 17
Number of dead aphids Average [1]: 17.5
pest or weed control at 96 µg/mL [2]: 87.2%

Clc1ccc(COc2cccc3ccccc23)cn1 [Example 13, 2-chloro-5-(naphthalen-1-yloxymethyl)-pyridine]
Number of dead aphids 1st: 18
Number of dead aphids 2nd: 17
Number of dead aphids 3rd: 16
Number of dead aphids 4th: 17
Number of dead aphids Average [1]: 17
pest or weed control at 96 µg/mL [2]: 84.6%

CC(C)Oc1ccccc1OCc1ccc(Cl)nc1 [Example 11, 2-chloro-5-(2-isopropoxy-phenoxymethyl)-pyridine]
Number of dead aphids 1st: 16
Number of dead aphids 2nd: 19
Number of dead aphids 3rd: 18
Number of dead aphids 4th: 18
Number of dead aphids Average [1]: 17.75
pest or weed control at 96 µg/mL [2]: 88.5%

N#CNCc1ccc(Cl)nc1 [Example 9, 6-chloro-pyridin-3-ylmethyl-cyanamide]
Number of dead aphids 1st: 19
Number of dead aphids 2nd: 19
Number of dead aphids 3rd: 20
Number of dead aphids 4th: 20
pest or weed control at 96 µg/mL (24 h): 96.2%
Number of dead aphids Average [1]: 19.25
